Patent US6020330A, “Hypolipidemic 1,4-benzothiazepine-1,1-dioxides” (Hoechst Aktiengesellschaft, priority 1997, dated 2000)
pIC50: −log10 of the molar value.

Target: T1, ileal transporter of the rabbit (RIBAT) (Oryctolagus cuniculus, UniProt Q28727)
T1 construct: contained the total protein-coding region of the RIBAT; expressed in transfected cells; host or cells: CHO cells, stably transfected with pRIBAT8 (pcDNA1neo vector), G418-selected clonal line
T1 sequence (Q28727 1-347): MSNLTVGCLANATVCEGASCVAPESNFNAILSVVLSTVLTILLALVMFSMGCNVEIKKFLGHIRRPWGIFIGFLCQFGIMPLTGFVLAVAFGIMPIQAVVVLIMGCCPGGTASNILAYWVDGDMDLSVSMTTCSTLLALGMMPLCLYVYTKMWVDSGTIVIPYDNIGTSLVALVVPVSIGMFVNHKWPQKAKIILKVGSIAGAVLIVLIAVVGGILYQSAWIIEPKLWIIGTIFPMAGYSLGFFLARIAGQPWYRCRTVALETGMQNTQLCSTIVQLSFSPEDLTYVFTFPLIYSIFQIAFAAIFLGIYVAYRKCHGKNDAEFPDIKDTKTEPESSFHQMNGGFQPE
Test: Inhibition of [24-14C]-taurocholic acid uptake in CHO/pRIBAT8 cells
Format: cell-based
Details: 21° C., 30 minutes
Text: These were derivatives of the generally known "Chinese hamster ovary" (CHO) cell line, which on account of incorporated expression plasmids additionally produced sodium-dependent bile acid transporters. The first cell line (CHO/pRIBAT8) was in this case the ileal transporter of the rabbit (RIBAT), the second (CHO/pHIBAT8) the ileal transporter of the human (HIBAT) and the third (CHO/pHLBAT5) the hepatic transporter of the human. All plasmids were based on the standard plasmid pCDNA1neo, which as important elements has a cytomegaloviral promoter for the permanent expression of heterologous genes and a gene for the production of cell resistance against the substance G418.
The starting material for the production of the plasmid for the RIBAT-producing cell line (pRIBAT8) was total RNA of the terminal ileum of the rabbit. […]
For the preparation of the genetically modified cell lines, CHO cells were transfected with DNA from pRIBAT8, pHIBAT8 or pHLBAT5 and cells which developed resistance against the selection substance G418 were selectively additionally cultured by addition of the substance to the cell medium. […] They could thereby be easily differentiated from cells without intact bile acid transporters with the aid of a fluorescence microscope. […]

CCCCC1(CC)CS(=O)(=O)c2cc(O[C@@H]3O[C@H](C(=O)O)[C@@H](O)[C@H](O)[C@H]3O)ccc2C(c2ccccc2)N1 (stereo partly shown) [Example 3]
pIC50: 7.15
